Data: the supplement of paper PMC8149375

Columns and labels:
Settings in all cases: treatment: drug alone; 5 days
TK-10 [1] = assay: AUC of dose-response viability curve, drug alone (arbitrary (AUC of normalised viability)); higher = less growth inhibition
Protocol: (§1)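 Primary HTS: 8 RCC cell lines treated with 8 doses (up to 10 uM) of each library drug alone for 5 days; viability read by CellTiter-Glo and normalised to DMSO. GI50 was fitted with XLfit (4-parameter), AUC is the area under the dose-response curve, and minimum viability is the lowest fraction of DMSO viability across doses.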

UO-31 [2] = assay: as above
Protocol: as §1

769-P [3] = assay: as above
Protocol: as §1

A498 [4] = assay: as above
Protocol: as §1

786-O [5] = assay: as above
Protocol: as §1

SN12C [6] = assay: as above
Protocol: as §1

ACHN [7] = assay: as above
Protocol: as §1

CAKI-1 [8] = assay: as above
Protocol: as §1

TK-10 [9] = assay: GI50, drug alone; higher = less potent
Protocol: as §1

UO-31 [10] = assay: GI50, drug alone; higher = less potent
Protocol: as §1

769-P [11] = assay: GI50, drug alone; higher = less potent
Protocol: as §1

A498 [12] = assay: GI50, drug alone; higher = less potent
Protocol: as §1

786-O [13] = assay: GI50, drug alone; higher = less potent
Protocol: as §1

SN12C [14] = assay: GI50, drug alone; higher = less potent
Protocol: as §1

ACHN [15] = assay: GI50, drug alone; higher = less potent
Protocol: as §1

CAKI-1 [16] = assay: GI50, drug alone; higher = less potent
Protocol: as §1

TK-10 [17] = assay: minimum viability across doses, drug alone, relative to DMSO (fraction); higher = less growth inhibition
Protocol: as §1

UO-31 [18] = assay: as above
Protocol: as §1

769-P [19] = assay: as above
Protocol: as §1

A498 [20] = assay: as above
Protocol: as §1

786-O [21] = assay: as above
Protocol: as §1

SN12C [22] = assay: as above
Protocol: as §1

ACHN [23] = assay: as above
Protocol: as §1

CAKI-1 [24] = assay: as above
Protocol: as §1

GI50, drug alone (786-O [13]) | GI50, drug alone (ACHN [15]) | Compound | AUC of dose-response viability curve (TK-10 [1]) | AUC of dose-response viability curve (UO-31 [2]) | AUC of dose-response viability curve (769-P [3]) | AUC of dose-response viability curve (A498 [4]) | AUC of dose-response viability curve (786-O [5]) | AUC of dose-response viability curve (SN12C [6]) | AUC of dose-response viability curve (ACHN [7]) | AUC of dose-response viability curve (CAKI-1 [8]) | GI50, drug alone (TK-10 [9]) | GI50, drug alone (UO-31 [10]) | GI50, drug alone (769-P [11]) | GI50, drug alone (A498 [12]) | GI50, drug alone (SN12C [14]) | GI50, drug alone (CAKI-1 [16]) | minimum viability across doses (TK-10 [17]) | minimum viability across doses (UO-31 [18]) | minimum viability across doses (769-P [19]) | minimum viability across doses (A498 [20]) | minimum viability across doses (786-O [21]) | minimum viability across doses (SN12C [22]) | minimum viability across doses (ACHN [23]) | minimum viability across doses (CAKI-1 [24])
0.495 µM | 0.231 µM | Cc1c(CN2CCN(C(=O)[C@H](C)O)CC2)sc2c(N3CCOCC3)nc(-c3cnc(N)nc3)nc12 [GDC-0980 (RG7422)] | 1.73 | 2.23 | 2.2 | 3.1 | 2.23 | 2.07 | 1.89 | 1.75 | 0.167 µM | 0.311 µM | 0.495 µM | 1.36 µM | 0.37 µM | 0.19 µM | 0.0656 | 0.0186 | 0.0688 | 0.215 | 0.0296 | 0.133 | 0.0739 | 0.0405
> 10 µM | 1.24 µM | COc1cc2ncnc(Nc3ccc(F)c(Cl)c3)c2cc1OCCCN1CCOCC1 [Gefitinib (Iressa)] | 2.43 | 4.31 | 2.66 | 4.53 | 3.22 | 3.15 | 2.4 | 3.04 | 1.52 µM | > 10 µM | > 10 µM | > 10 µM | > 10 µM | 5.88 µM | 0.269 | 0.872 | 0.536 | 1.05 | 0.781 | 0.693 | 0.179 | 0.281
4.23 µM | 1.51 µM | CN1CCN(C2CCN(C(=O)Nc3cc(Oc4ccc(NC(=O)C5(C(=O)Nc6ccc(F)cc6)CC5)c(F)c4)ccn3)CC2)CC1 [Golvatinib (E7050)] | 2.56 | 5.28 | 3.55 | 4.37 | 2.78 | 3.38 | 2.67 | 3.05 | 2.59 µM | 9.86 µM | 9.71 µM | > 10 µM | 7.83 µM | 3.06 µM | 0.284 | 0.471 | 0.423 | 0.613 | 0.0352 | 0.346 | 0.0761 | 0.0988
> 10 µM | > 10 µM | CCOC(=O)C1=C(N)Oc2ccc(Br)cc2[C@H]1[C@H](C#N)C(=O)OCC [HA14-1] | 3.55 | 4.2 | 3.84 | 3.57 | 3.27 | 3.19 | 3.35 | 3.67 | > 10 µM | > 10 µM | > 10 µM | > 10 µM | > 10 µM | > 10 µM | 0.948 | 0.891 | 0.973 | 0.885 | 0.81 | 0.867 | 0.852 | 0.957
0.116 µM | 0.262 µM | COc1ccc(S(=O)(=O)N(C(C)=O)c2ccccc2/C=C/c2cc[n+]([O-])cc2)cc1 [HMN-214] | 2.14 | 2.75 | 2.36 | 2.36 | 1.3 | 2.47 | 2.14 | 2.1 | 0.694 µM | 0.455 µM | 0.541 µM | 0.378 µM | 0.714 µM | 0.293 µM | 0.285 | 0.00366 | 0.0968 | 0.119 | 0.00365 | 0.167 | 0.127 | 0.182
0.0639 µM | 0.111 µM | CCS(=O)(=O)Nc1ccc2c(c1)/C(=C(/Nc1ccc(CN3CCCCC3)cc1)c1ccccc1)C(=O)N2 [Hesperadin] | 2.46 | 3.32 | 2.53 | 3.72 | 1.54 | 1.86 | 1.63 | 1.85 | 1.46 µM | 2.49 µM | 1.18 µM | 2.5 µM | 0.199 µM | 0.189 µM | 0.0523 | 0.0115 | 0.0547 | 0.0284 | 0.0109 | 0.00306 | 0.00749 | 0.0394
0.412 µM | 0.943 µM | O=C(Nc1cc(C(F)(F)F)cc(C(F)(F)F)c1)c1cc(Cl)ccc1O [IMD 0354] | 2.4 | 4.73 | 2.71 | 3.46 | 2.03 | 2.67 | 2.4 | 2.8 | 1.22 µM | 2.96 µM | 1.29 µM | 1.59 µM | 1.35 µM | 1.08 µM | 0.0653 | 0.019 | 0.0108 | 0.0128 | 0.00771 | 0.00716 | 0.00484 | 0.036
0.00665 µM | 0.0152 µM | CC(C)n1nc(-c2ccc3oc(N)nc3c2)c2c(N)ncnc21 [INK 128] | 0.931 | 0.778 | 1.34 | 1.63 | 0.69 | 1.27 | 0.901 | 1.12 | 0.012 µM | 0.0252 µM | 0.0504 µM | 0.071 µM | 0.039 µM | 0.0344 µM | 0.0249 | 0.00678 | 0.0864 | 0.104 | 0.00552 | 0.0865 | 0.0484 | 0.0368
> 10 µM | > 10 µM | Cc1ccc(NC(=O)c2ccc(CN3CCN(C)CC3)cc2)cc1Nc1nccc(-c2cccnc2)n1 [Imatinib (Gleevec)] | 3.07 | 4.67 | 3.23 | 3.83 | 2.36 | 3.06 | 3.41 | 3.35 | > 10 µM | > 10 µM | > 10 µM | > 10 µM | > 10 µM | > 10 µM | 0.829 | 1.03 | 0.858 | 0.919 | 0.514 | 0.77 | 0.802 | 0.891
8.42 µM | > 10 µM | CS(=O)(=O)O.Cc1ccc(NC(=O)c2ccc(CN3CCN(C)CC3)cc2)cc1Nc1nccc(-c2cccnc2)n1 [Imatinib Mesylate] | 3.25 | 5.21 | 3.45 | 3.89 | 2.83 | 3.55 | 3.71 | 3.61 | > 10 µM | > 10 µM | > 10 µM | > 10 µM | > 10 µM | > 10 µM | 0.861 | 1.1 | 0.898 | 0.973 | 0.399 | 0.775 | 0.855 | 0.965
> 10 µM | > 10 µM | O=C1Nc2ccccc2/C1=C1/Nc2ccccc2C1=O [Indirubin] | 2.6 | 2.68 | 3.19 | 3.26 | 2.32 | 2.66 | 2.9 | 2.94 | > 10 µM | > 10 µM | > 10 µM | > 10 µM | > 10 µM | > 10 µM | 0.635 | 0.655 | 0.811 | 0.827 | 0.529 | 0.703 | 0.778 | 0.762
3.93 µM | > 10 µM | CCCNC(=O)Nc1ccc(Oc2ncnc3cc(OC)c(OC)cc23)cc1Cl [KRN 633] | 2.8 | 3.91 | 3.34 | 4.07 | 2.11 | 2.93 | 2.92 | 3.24 | > 10 µM | > 10 µM | > 10 µM | > 10 µM | > 10 µM | > 10 µM | 0.664 | 0.734 | 0.861 | 0.974 | 0.366 | 0.718 | 0.742 | 0.817
> 10 µM | 2.12 µM | O=C(c1ccc(/C=C/c2n[nH]c3ccccc23)cc1)N1CCNCC1 [KW 2449] | 3.23 | 4.33 | 3.12 | 3.72 | 3.77 | 3.03 | 2.67 | 2.93 | > 10 µM | > 10 µM | > 10 µM | > 10 µM | 4.76 µM | 3.54 µM | 0.645 | 0.86 | 0.549 | 0.828 | 0.814 | 0.241 | 0.215 | 0.268
0.0268 µM | 0.0755 µM | O=C(Cc1ccc(-c2ccc(OCCN3CCOCC3)cc2)cn1)NCc1ccccc1 [KX2-391] | 1.95 | 1.48 | 1.43 | 1.84 | 0.9 | 1.72 | 1.66 | 1.67 | 0.193 µM | 0.0852 µM | 0.0606 µM | 0.0893 µM | 0.115 µM | 0.0797 µM | 0.27 | 0.00967 | 0.0797 | 0.177 | 0.00471 | 0.102 | 0.113 | 0.142
> 10 µM | > 10 µM | COc1cc2nccc(Oc3ccc(NC(=O)Nc4ccc(F)cc4F)c(F)c3)c2cc1OC [Ki8751] | 3.08 | 2.83 | 3.31 | 5.49 | 3.06 | 3.45 | 3.13 | 3.34 | > 10 µM | 0.445 µM | > 10 µM | > 10 µM | > 10 µM | 7.43 µM | 0.72 | 0.00557 | 0.559 | 1 | 0.673 | 0.877 | 0.574 | 0.403
> 10 µM | 5.29 µM | CS(=O)(=O)CCNCc1ccc(-c2ccc3ncnc(Nc4ccc(OCc5cccc(F)c5)c(Cl)c4)c3c2)o1.Cc1ccc(S(=O)(=O)O)cc1.Cc1ccc(S(=O)(=O)O)cc1 [Lapatinib Ditosylate (Tykerb)] | 2.51 | 4.64 | 2.86 | 3.99 | 2.9 | 3.16 | 2.78 | 3.24 | 3.78 µM | > 10 µM | 7.1 µM | > 10 µM | > 10 µM | 9.61 µM | 0.39 | 1.05 | 0.455 | 0.929 | 0.471 | 0.734 | 0.419 | 0.48
< 0.003 µM | > 10 µM | Nc1cccc2c1CN(C1CCC(=O)NC1=O)C2=O (configuration not stated) [Lenalidomide (Revlimid)] | 3.21 | 5.03 | 3.64 | 4.04 | 1.86 | 3.28 | 3.29 | 3.56 | > 10 µM | > 10 µM | > 10 µM | > 10 µM | > 10 µM | > 10 µM | 0.864 | 1.19 | 0.963 | 0.98 | 0.325 | 0.865 | 0.878 | 0.972
9.4 µM | 7.46 µM | Cc1ccc(F)c(NC(=O)Nc2ccc(-c3cccc4[nH]nc(N)c34)cc2)c1 [Linifanib (ABT-869)] | 2.99 | 4.69 | 3.21 | 3.32 | 3.03 | 3.28 | 3.34 | 3.49 | 5.72 µM | > 10 µM | > 10 µM | > 10 µM | 6.98 µM | 9.96 µM | 0.309 | 1.08 | 0.503 | 0.672 | 0.472 | 0.242 | 0.279 | 0.497
